Experimental data taken from US20220296599A1, “Pharmaceutical composition comprising histone deacetylase inhibitor and methotrexate” (Chong Kun Dang Pharmaceutical Corp., priority 2018, published 2022).

Tests used:
[1] = tested on: adjuvant-induced arthritis (AIA) model; assay: Clinical score analysis in adjuvant-induced arthritis (AIA) model; assay type: in vivo, Lewis rats; set-up: Clinical score 9th day / Clinical score 13th day / Clinical score 16th day / Clinical score 11th day / Clinical score 15th day / Clinical score 18th day: scale not given here; settings: Table 17 study, compound 10 mg/kg once per day P.O.; for Rate of reduction in clinical scores (%): 18th day vs vehicle; for Clinical score 11th day / Clinical score 15th day / Clinical score 18th day: Mean ± SEM
Procedure: (§1) Lewis rats (female, five-weeks old) were purchased from Central Lab Animal, Inc. and kept in a controlled environment with a temperature at 22±2° C., a humidity at 44-56% and a light/dark cycle of 12 hours, while being allowed to have a free access to standard diet and water for one week before an examination. Complete Freund's Adjuvant (Chondrex) containing 10 mg/mL of heat killed mycobacteria toxin was fully mixed together, after which […] thereof was taken and subcutaneously injected into each upper tail of the rats to induce arthritis therefrom.
(§2) To administer a drug of compound 374 (SM374) and evaluate an effect thereof, the rats were divided into 11 groups (9, 10 or 11 animals per group) one day before or nine days after inducing arthritis, after which each group was classified according to administered substances (vehicle, compound 374 (SM374) or methotrexate (MTX)) and administration routes (oral administration (P.O.) or intraperitoneal administration (I.P.)) as shown in a following table 13.
(§3) Also, in order to administer a drug of compounds 374, 413, 484, 530 and 652 (SM374, SM413, SM484, SM530 and SM652) and evaluate an effect thereof, the rats were divided into 13 groups (9 or 10 animals per group) eight days after inducing arthritis, and each group was classified according to administered substances (vehicle, SM374, SM413, SM484, SM530, SM652 and MTX) and administration routes (oral or intraperitoneal administration) as shown in a following table 14.
To identify the efficacy of the inventive composition on preventing or treating arthritis in an AIA model, an analysis was made on the clinical scores of rats dosed with a compound 374 (SM 374, once per day) or MTX (once per week or twice per week) from 9th day to 16th day after inducing arthritis.
Particularly, a degree of swelling, erythema, etc., in each joint of the rats were observed, after which clinical scores were calculated according to a scoring system described in a following table 15, such that the clinical scores on four joints were added up to obtain total scores for each rat (Vishwakarma et al., 2013).
To identify the efficacy of the inventive composition on preventing or treating arthritis in an AIA model, an analysis was made on the clinical scores of rats dosed with compounds 374, 413, 484, 530 and 652 (SM374, SM413, SM484, SM530 and SM652, once per day) or MIX (once per week) from 8th day to 18th day after inducing arthritis.

[2] = Analysis of body weights in AIA model; assay type: in vivo, Lewis rats; settings: Table 19 study; compound 10 mg/kg once per day P.O.
Procedure: as §1, §2, §3
An analysis was made on the body weight of rats dosed with compound 374 (SM 374, once per day) or MIX (once per week or twice per week) from 9th day to 16th day after inducing AIA. […]

SMILES: COc1cccc(N(Cc2ccc(C(=O)NO)cc2)C(=O)N2CCOCC2)c1 [SM484, N-(4-(hydroxycarbamoyl)benzyl)-N-(3-methoxyphenyl)morpholine-4-carboxamide]
- Rate of reduction in clinical scores (%) [1]: 19.7%
- Clinical score 11th day [1]: 0.0 ± 0.0
- Clinical score 15th day [1]: 2.9 ± 1.3
- Clinical score 18th day [1]: 4.9 ± 1.7
- Body weight (g) 8th day [2]: 151.4 ± 2.5 g
- Body weight (g) 11th day [2]: 154.7 ± 2.1 g
- Body weight (g) 15th day [2]: 160.7 ± 3.3 g
- Body weight (g) 18th day [2]: 158.3 ± 4.6 g

SMILES: O=C(NO)c1ccc(CN(C(=O)N2CCOCC2)c2cccc(F)c2)cc1 [SM530]
- Rate of reduction in clinical scores (%) [1]: 31.1%
- Clinical score 11th day [1]: 0.0 ± 0.0
- Clinical score 15th day [1]: 1.2 ± 0.5
- Clinical score 18th day [1]: 4.2 ± 1.6
- Body weight (g) 8th day [2]: 151.2 ± 2.6 g
- Body weight (g) 11th day [2]: 153.0 ± 2.1 g
- Body weight (g) 15th day [2]: 161.1 ± 2.1 g
- Body weight (g) 18th day [2]: 159.2 ± 4.5 g

SMILES: O=C(NO)c1ccc(CN(C(=O)N2CCCOCC2)c2cccc(F)c2)cc1 [SM652, N-(3-fluorophenyl)-N-(4-(hydroxycarbamoyl)benzyl)-1,4-oxazepane-4-carboxamide]
- Rate of reduction in clinical scores (%) [1]: 19.7%
- Clinical score 11th day [1]: 0.0 ± 0.0
- Clinical score 15th day [1]: 1.4 ± 0.9
- Clinical score 18th day [1]: 4.9 ± 1.6
- Body weight (g) 8th day [2]: 152.8 ± 2.4 g
- Body weight (g) 11th day [2]: 157.6 ± 1.9 g
- Body weight (g) 15th day [2]: 158.8 ± 1.6 g
- Body weight (g) 18th day [2]: 156.8 ± 3.9 g
